According to patent US12459974B2, “Bicyclic peptide ligands specific for Nectin-4” (priority 2018, dated 2025):
*1 amine or outer side, *2 acyl side, *3 side chain or, on linkers, in order; H or OH if unused. Where a SMILES comes first, the peptide text is derived from it. Bridges are numbered along the chain shown (N, C = ends). Roman numbers before positions name the chains, in order. [ ]: non-standard residue; d: D form. The star is where a group is joined. ξ: configuration not given here. TATA = O=C(CC[*:1])N1CN(C(=O)CC[*:2])CN(C(=O)CC[*:3])C1; Dolaproine = CO[C@@H]([C@@H]1CCCN1)[C@@H](C)C(=O)O; X1 = CC[C@H](C)C(C(CC(=O)[*:2])OC)N(C)[*:1]; 1Nal = N[C@@H](Cc1cccc2ccccc12)C(=O)O; X3 = O=C(CCCC(=O)[*:2])NCCC(=O)[*:1]; PABC = O=C(OCc1ccc(N[*:1])cc1)[*:2]; Hyp = O=C(O)[C@@H]1C[C@@H](O)CN1; hArg = N=C(N)NCCCC[C@H](N)C(=O)O; Cit = NC(=O)NCCC[C@H](N)C(=O)O; X2 = CC(N*)[C@@H](O)c1ccccc1; ξNMeV = CNC(C(=O)O)C(C)C; ξV = CC(C)C(N)C(=O)O; Sar = CNCC(=O)O

Experiments:
human Nectin-4 = biological target: T1, human Nectin-4 (Homo sapiens, UniProt Q96NY8); test: Nectin-4 Biacore SPR binding assay
T1 sequence (Q96NY8 32-349): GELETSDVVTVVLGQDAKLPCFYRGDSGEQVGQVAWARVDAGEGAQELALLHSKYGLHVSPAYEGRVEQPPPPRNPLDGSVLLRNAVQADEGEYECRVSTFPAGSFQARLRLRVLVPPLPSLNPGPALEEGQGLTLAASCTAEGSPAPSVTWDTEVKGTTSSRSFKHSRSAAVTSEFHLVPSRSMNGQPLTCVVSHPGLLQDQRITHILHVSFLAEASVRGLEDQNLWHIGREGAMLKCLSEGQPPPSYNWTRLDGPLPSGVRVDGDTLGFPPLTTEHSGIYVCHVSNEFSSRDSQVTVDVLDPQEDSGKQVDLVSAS
Method: Biacore experiments were performed to determine ka (M^−1 s^−1), kd (s^−1), KD (nM) values of monomeric peptides binding to human Necin-4 protein (obtained from Charles River).
Human Nectin-4 (residues Gly32-Ser349; NCBI RefSeq: NP_112178.2) with a gp67 signal sequence and C-terminal FLAG tag was cloned into pFastbac-1 and baculovirus made using standard Bac-to-Bac™ protocols (Life Technologies). Sf21 cells at 1×10^6 ml^−1 in Excell-420 medium (Sigma) at 27° C. were infected at an MOI of 2 with a P1 virus stock and the supernatant harvested at 72 hours. […] The protein was eluted with 100 μg/ml FLAG peptide. The eluted protein was concentrated to 2 ml and loaded onto an S-200 Superdex column (GE Healthcare) in PBS at 1 ml/min. 2 ml fractions were collected and the fractions containing Nectin-4 protein were concentrated to 16 mg/ml.
The protein was extensively desalted to remove uncoupled biotin using spin columns into PBS.
For analysis of peptide binding, a Biacore 3000 instrument was used utilising a CM5 chip (GE Healthcare). Streptavidin was immobilized on the chip using standard amine-coupling chemistry at 25° C. with HBS-N (10 mM HEPES, 0.15 M NaCl, pH 7.4) as the running buffer. Briefly, the carboxymethyl dextran surface was activated with a 7 minute injection of a 1:1 ratio of 0.4 M 1-ethyl-3-(3-dimethylaminopropyl) carbodiimide hydrochloride (EDC)/0.1 M N-hydroxy succinimide (NHS) at a flow rate of 10 μl/min. For capture of streptavidin, the protein was diluted to 0.2 mg/ml in 10 mM sodium acetate (pH 4.5) and captured by injecting 120 μl of streptavidin onto the activated chip surface. Residual activated groups were blocked with a 7 minute injection of 1 M ethanolamine (pH 8.5) and biotinylated Nectin-4 captured to a level of 1,200-1,800 RU. Buffer was changed to PBS/0.05% Tween 20 and a dilution series of the peptides was prepared in this buffer with a final DMSO concentration of 0.5%. The top peptide concentration was 100 nM with 6 further 2-fold dilutions. The SPR analysis was run at 25° C. at a flow rate of 50 μl/min with 60 seconds association and dissociation between 400 and 1,200 seconds depending upon the individual peptide. Data were corrected for DMSO excluded volume effects. All data were double-referenced for blank injections and reference surface using standard processing procedures and data processing and kinetic fitting were performed using Scrubber software, version 2.0c (BioLogic Software). Data were fitted using simple 1:1 binding model allowing for mass transport effects where appropriate.

MDA-MB-468 xenograft [1] = test: Example 9.4: in vivo efficacy in MDA-MB-468 xenograft in Balb/c nude mice; conditions: for TGI / Tumor volume (TV) / T/C: day 21; for T/C: treated/control group average tumor volume; for Tumor volume trace over time (Day 23 to day 42): dosing suspended from day 21
Method: The major endpoint was to see if the tumor growth could be delayed or mice could be cured. Tumor volume was measured three times weekly in two dimensions using a caliper, and the volume was expressed in mm^3 using the formula: V=0.5 a×b^2 where a and b are the long and short diameters of the tumor, respectively. The tumor size was then used for calculations of T/C value. The T/C value (in percent) is an indication of antitumor effectiveness; T and C are the mean volumes of the treated and control groups, respectively, on a given day. TGI was calculated for each group using the formula: TGI (%)=[1−(Ti−T0)/(Vi−V0)]×100; Ti is the average tumor volume of a treatment group on a given day, T0 is the average tumor volume of the treatment group on the day of treatment start, Vi is the average tumor volume of the vehicle control group on the same day with Ti, and V0 is the average tumor volume of the vehicle group on the day of treatment start.
A one-way ANOVA was performed to compare tumor volume among groups, and when a significant F-statistics (a ratio of treatment variance to the error variance) was obtained, comparisons between groups were carried out with Games-Howell test. All data were analyzed using GraphPad Prism 5.0. P<0.05 was considered to be statistically significant.
• Species: Mus Musculus • Strain: Balb/c nude • Age: 6-8 weeks • Sex: female • Body weight: 18-22 g • Number of animals: 41 mice plus spare 3.1.2.
The tumor cells were maintained in Leibovitz's L-15 medium supplemented with 10% heat inactivated fetal bovine serum at 37° C. in an atmosphere of 5% CO2 in air. The tumor cells were routinely subcultured twice weekly. The cells growing in an exponential growth phase were harvested and counted for tumor inoculation.
41 animals were randomized when the average tumor volume reached 196 mm^3.

MDA-MB-468 xenograft [2] = test: Example 9.9: in vivo efficacy of BCY8245 alone or with BCY8234 in MDA-MB-468 xenograft (large tumors) in Balb/c nude mice; parameters: species or system Mus Musculus
[3] = 3 mg/kg qw in combination with BCY8234 300 mg/kg qw, day 28

For `CC[C@H](C)C(C(CC(=O)N1CCC[C@H]1[C@H](OC)[C@@H](C)C(=O)NC(C)[C@@H](O)c1ccccc1)OC)N(C)C(=O)[C@@H](NC(=O)C(C(C)C)N(C)C(=O)OCc1ccc(NC(=O)[C@H](CCCNC(N)=O)NC(=O)C(NC(=O)CCCC(=O)NCCC(=O)N(C)CC(=O)N(C)CC(=O)N(C)CC(=O)N(C)CC(=O)N(C)CC(=O)N(C)CC(=O)N(C)CC(=O)N(C)CC(=O)N(C)CC(=O)N(C)CC(=O)N[C@H]2CSCCC(=O)N3CN4CN(C3)C(=O)CCSC[C@H](NC(=O)[C@@H](CC(=O)O)NC(=O)[C@H](Cc3cccc5ccccc35)NC(=O)[C@@H]3CCCN3C2=O)C(=O)N[C@@H](CCSC)C(=O)N[C@@H](CCCCNC(=N)N)C(=O)N[C@@H](CC(=O)O)C(=O)N[C@@H](Cc2c[nH]c3ccccc23)C(=O)N[C@@H](CO)C(=O)N[C@@H]([C@@H](C)O)C(=O)N2CCC[C@H]2C(=O)N2C[C@H](O)C[C@H]2C(=O)N[C@@H](Cc2c[nH]c3ccccc23)C(=O)N[C@H](C(N)=O)CSCCC4=O)C(C)C)cc1)C(C)C` (stereo partly drawn) [BCY8245, MMAE-PABC-Cit-Val-Glutaryl-BCY8234] (I: [Sar][Sar][Sar][Sar][Sar][Sar][Sar][Sar][Sar][Sar]CP[1Nal][dD]CM[hArg]DWSTP[Hyp]WC-NH2 / II: [ξV][Cit][PABC][ξNMeV]V[X1][Dolaproine]-X2; linker I:11-I:15-I:25 via TATA; linker I:N-II:N via X3), the “binding to human Nectin-4 in the SPR binding assay (in words)” value (human Nectin-4) was “excellent binding”, the Kd (human Nectin-4; read-out: Human SPR Kd, bicyclic drug conjugates (Table 4)) was 5.12 nM and the TGI (MDA-MB-468 xenograft [1]; 3 mg/kg biw) was 169.8%. For the same compound, the “Tumor volume (TV)” value (MDA-MB-468 xenograft [1]; 3 mg/kg biw) was 22 mm^3, the TGI (MDA-MB-468 xenograft [1]; 3 mg/kg qw) was 144.2% and the “Tumor volume (TV)” value (MDA-MB-468 xenograft [1]; 3 mg/kg qw) was 85 mm^3. The TGI (MDA-MB-468 xenograft [1]; 5 mg/kg qw) was 168.4%, the “Tumor volume (TV)” value (MDA-MB-468 xenograft [1]; 5 mg/kg qw) was 29 mm^3 and the TGI (MDA-MB-468 xenograft [1]; 3 mpk, biw, iv) was 169.8%. For the same compound, the T/C (MDA-MB-468 xenograft [1]; 3 mpk, biw, iv) was 4.9%, the TGI (MDA-MB-468 xenograft [1]; 3 mpk, qw, iv) was 144.2% and the T/C (MDA-MB-468 xenograft [1]; 3 mpk, qw, iv) was 18.9%. For the same compound, the “Tumor volume trace over time (Day 23 to day 42)” value (shortened to “Tumor volume trace over time”) (MDA-MB-468 xenograft [1]; 5 mpk, qw, iv, day 23 after the start of treatment) was 35 ± 5 mm^3, the “Tumor volume trace over time” value (MDA-MB-468 xenograft [1]; 5 mpk, qw, iv, day 25 after the start of treatment) was 48 ± 5 mm^3 and the “Tumor volume trace over time” value (MDA-MB-468 xenograft [1]; 5 mpk, qw, iv, day 28 after the start of treatment) was 37 ± 7 mm^3. For the same compound, the “Tumor volume trace over time” value (MDA-MB-468 xenograft [1]; 5 mpk, qw, iv, day 32 after the start of treatment) was 28 ± 6 mm^3, the “Tumor volume trace over time” value (MDA-MB-468 xenograft [1]; 5 mpk, qw, iv, day 35 after the start of treatment) was 24 ± 4 mm^3 and the “Tumor volume trace over time” value (MDA-MB-468 xenograft [1]; 5 mpk, qw, iv, day 39 after the start of treatment) was 28 ± 6 mm^3. For the same compound, the “Tumor volume trace over time” value (MDA-MB-468 xenograft [1]; 5 mpk, qw, iv, day 42 after the start of treatment) was 26 ± 6 mm^3, the TGI (MDA-MB-468 xenograft [1]; 5 mpk, qw, iv) was 168.4% and the T/C (MDA-MB-468 xenograft [1]; 5 mpk, qw, iv) was 6.6%. The “tumor response (in words)” value (MDA-MB-468 xenograft [1]; mouse, in vivo) was “causes regression of the tumor”, the TGI (MDA-MB-468 xenograft [2]; 1 mg/kg qw, day 28) was 126.6% and the “Tumor volume (TV)” value (MDA-MB-468 xenograft [2]; 1 mg/kg qw, day 28) was 384 mm^3. The TGI (MDA-MB-468 xenograft [2]; [3]) was 234.0%, the “Tumor volume (TV)” value (MDA-MB-468 xenograft [2]; [3]) was 55 mm^3 and the “tumor relapse (in words)” value (MDA-MB-468 xenograft [2]; 3 mg/kg qw in combination with BCY8234 300 mg/kg qw, whole monitoring schedule) was “didn't showed any relapse”. For the same compound, the “tumor relapse (in words)” value (MDA-MB-468 xenograft [2]; 3 mg/kg qw, after ceasing the treatment) was “some tumor relapse”, the TGI (MDA-MB-468 xenograft [2]; 3 mg/kg qw, day 28) was 234.6% and the “Tumor volume (TV)” value (MDA-MB-468 xenograft [2]; 3 mg/kg qw, day 28) was 50 mm^3. The Tumor volume (MDA-MB-468 xenograft [2]; 1 mpk, qw, day 0 after the start of treatment) was 466 mm^3, the Tumor volume (MDA-MB-468 xenograft [2]; 1 mpk, qw, day 2) was 480 mm^3 and the Tumor volume (MDA-MB-468 xenograft [2]; 1 mpk, qw, day 5) was 453 mm^3. The Tumor volume (MDA-MB-468 xenograft [2]; 1 mpk, qw, day 7) was 474 mm^3, the Tumor volume (MDA-MB-468 xenograft [2]; 1 mpk, qw, day 9) was 446 mm^3 and the Tumor volume (MDA-MB-468 xenograft [2]; 1 mpk, qw, day 12) was 461 mm^3. The Tumor volume (MDA-MB-468 xenograft [2]; 1 mpk, qw, day 14) was 460 mm^3, the Tumor volume (MDA-MB-468 xenograft [2]; 1 mpk, qw, day 16) was 433 mm^3 and the Tumor volume (MDA-MB-468 xenograft [2]; 1 mpk, qw, day 19) was 412 mm^3. It also gave a Tumor volume (MDA-MB-468 xenograft [2]; 1 mpk, qw, day 21) of 430 mm^3, a Tumor volume (MDA-MB-468 xenograft [2]; 1 mpk, qw, day 23) of 421 mm^3 and a Tumor volume (MDA-MB-468 xenograft [2]; 1 mpk, qw, day 26) of 382 mm^3. The T/C (MDA-MB-468 xenograft [2]; 1 mpk, qw, day 28) was 49.7%, the TGI (MDA-MB-468 xenograft [2]; 1 mpk, qw, day 28) was 126.6% and the Tumor volume (MDA-MB-468 xenograft [2]; 1 mpk, qw, day 28) was 384 mm^3. For the same compound, the Tumor volume (MDA-MB-468 xenograft [2]; 3 mpk, qw, day 0 after the start of treatment) was 464 mm^3, the Tumor volume (MDA-MB-468 xenograft [2]; 3 mpk, qw, day 2) was 451 mm^3 and the Tumor volume (MDA-MB-468 xenograft [2]; 3 mpk, qw, day 5) was 388 mm^3. The Tumor volume (MDA-MB-468 xenograft [2]; 3 mpk, qw, day 7) was 333 mm^3, the Tumor volume (MDA-MB-468 xenograft [2]; 3 mpk, qw, day 9) was 284 mm^3 and the Tumor volume (MDA-MB-468 xenograft [2]; 3 mpk, qw, day 12) was 168 mm^3. For the same compound, the Tumor volume (MDA-MB-468 xenograft [2]; 3 mpk, qw, day 14) was 129 mm^3, the Tumor volume (MDA-MB-468 xenograft [2]; 3 mpk, qw, day 16) was 93 mm^3 and the Tumor volume (MDA-MB-468 xenograft [2]; 3 mpk, qw, day 19) was 83 mm^3. It also gave a Tumor volume (MDA-MB-468 xenograft [2]; 3 mpk, qw, day 21) of 71 mm^3, a Tumor volume (MDA-MB-468 xenograft [2]; 3 mpk, qw, day 23) of 60 mm^3 and a Tumor volume (MDA-MB-468 xenograft [2]; 3 mpk, qw, day 26) of 49 mm^3. The T/C (MDA-MB-468 xenograft [2]; 3 mpk, qw, day 28) was 6.4%, the TGI (MDA-MB-468 xenograft [2]; 3 mpk, qw, day 28) was 234.6% and the Tumor volume (MDA-MB-468 xenograft [2]; 3 mpk, qw, day 28) was 50 mm^3. It also gave a Tumor volume (MDA-MB-468 xenograft [2]; Group1, Vehicle, dosed with 5 mpk BCY8245 on PG-D28, day 30) of 625 ± 27 mm^3, a Tumor volume (MDA-MB-468 xenograft [2]; Group1, Vehicle, dosed with 5 mpk BCY8245 on PG-D28, day 33) of 477 ± 31 mm^3 and a Tumor volume (MDA-MB-468 xenograft [2]; Group1, Vehicle, dosed with 5 mpk BCY8245 on PG-D28, day 35) of 405 ± 65 mm^3. The Tumor volume (MDA-MB-468 xenograft [2]; Group1, Vehicle, dosed with 5 mpk BCY8245 on PG-D28, day 37) was 237 ± 36 mm^3, the Tumor volume (MDA-MB-468 xenograft [2]; Group1, Vehicle, dosed with 5 mpk BCY8245 on PG-D28, day 40) was 148 ± 33 mm^3 and the Tumor volume (MDA-MB-468 xenograft [2]; Group1, Vehicle, dosed with 5 mpk BCY8245 on PG-D28, day 42) was 142 ± 33 mm^3.
